PMC12057336 (Antimicrobial Agents and Chemotherapy, 2025)
Where two headings read alike, the source gives them in different places.

Columns and labels:
OAT3 = conditions: cited from earlier work
OCT3 = conditions: cited from earlier work
human OAT3 = biological target: T1, human OAT3 (Homo sapiens, UniProt Q8TCC7); test: Uptake in OAT3-transfected HEK293 cells; conditions: 5 µM; 10 min; 37°C; vs mock cells
T1 sequence (Q8TCC7 1-542): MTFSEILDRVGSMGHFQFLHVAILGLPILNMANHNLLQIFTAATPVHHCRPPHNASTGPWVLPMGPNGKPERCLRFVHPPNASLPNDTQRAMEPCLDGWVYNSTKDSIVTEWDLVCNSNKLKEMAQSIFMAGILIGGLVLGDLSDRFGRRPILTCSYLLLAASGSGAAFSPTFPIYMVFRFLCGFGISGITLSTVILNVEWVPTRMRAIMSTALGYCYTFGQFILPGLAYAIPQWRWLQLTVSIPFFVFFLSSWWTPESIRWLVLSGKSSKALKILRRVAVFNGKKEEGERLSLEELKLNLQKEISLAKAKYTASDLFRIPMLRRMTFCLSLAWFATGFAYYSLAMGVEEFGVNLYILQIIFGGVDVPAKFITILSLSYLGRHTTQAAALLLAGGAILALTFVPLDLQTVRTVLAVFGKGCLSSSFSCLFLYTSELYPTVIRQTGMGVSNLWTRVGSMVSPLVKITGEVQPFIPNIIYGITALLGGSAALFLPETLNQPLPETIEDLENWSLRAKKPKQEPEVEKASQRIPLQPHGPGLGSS
Protocol: (§1) OATP1B1-, OATP1B3-, OATP2B1-, NTCP-, OAT1-, and OAT3-transfected HEK293 cells were cultured in DMEM supplemented with 10% FBS, 100 U/mL penicillin-streptomycin at 37°C with 95% relative humidity atmosphere containing 5% CO2. All cells were seeded in 24-well plates at a density of 4 × 10^5 cells/well and cultured for 1–2 days until they reached 80%–90% confluence. Prior to the initiation of uptake studies, the cells were washed twice with HBSS buffer at 37°C. Membrane vesicles were stored at −80°C and thawed at 37°C prior to the initiation of the studies.
(§2) All uptake tests were performed in triplicates. The activities of transporter-transfected HEK293 cells were evaluated using relevant positive substrates and inhibitors. E17G (5 µM, OATP1B1 and OATP1B3), ES (2 µM, OATP2B1), ES (5 µM, OAT3), TCA (10 µM, NTCP), and PAH (20 µM, OAT1) were used as substrates of the transporters. The inhibitors for each transporter were rifampicin (200 µM, OATP1B1 and OATP1B3), erlotinib (10 µM, OATP2B1), CsA (20 µM, NTCP), and probenecid (200 µM, OAT1 and OAT3).
(§3) The cells were washed three times with ice-cold HBSS buffer. […] The total protein concentration was measured using a BCA Protein Assay Kit. The uptake rates of HEK293-OATP1B1, HEK293-OATP1B3, HEK293-OATP2B1, HEK293-NTCP, HEK293-OAT1, HEK293-OAT3, and mock cells were calculated. […]

MAT1 = tested on: MAT1; design: method as in PMID 27645247, PMID 26976869, PMID 27550354; conditions: cited from earlier work
OAT1 = conditions: cited from earlier work
human OATP1B1 = human OATP1B1 (Homo sapiens, UniProt Q9Y6L6); conditions: 5 µM; 10 min; 37°C; vs mock cells
Chain of human OATP1B1 (Q9Y6L6 whole entry): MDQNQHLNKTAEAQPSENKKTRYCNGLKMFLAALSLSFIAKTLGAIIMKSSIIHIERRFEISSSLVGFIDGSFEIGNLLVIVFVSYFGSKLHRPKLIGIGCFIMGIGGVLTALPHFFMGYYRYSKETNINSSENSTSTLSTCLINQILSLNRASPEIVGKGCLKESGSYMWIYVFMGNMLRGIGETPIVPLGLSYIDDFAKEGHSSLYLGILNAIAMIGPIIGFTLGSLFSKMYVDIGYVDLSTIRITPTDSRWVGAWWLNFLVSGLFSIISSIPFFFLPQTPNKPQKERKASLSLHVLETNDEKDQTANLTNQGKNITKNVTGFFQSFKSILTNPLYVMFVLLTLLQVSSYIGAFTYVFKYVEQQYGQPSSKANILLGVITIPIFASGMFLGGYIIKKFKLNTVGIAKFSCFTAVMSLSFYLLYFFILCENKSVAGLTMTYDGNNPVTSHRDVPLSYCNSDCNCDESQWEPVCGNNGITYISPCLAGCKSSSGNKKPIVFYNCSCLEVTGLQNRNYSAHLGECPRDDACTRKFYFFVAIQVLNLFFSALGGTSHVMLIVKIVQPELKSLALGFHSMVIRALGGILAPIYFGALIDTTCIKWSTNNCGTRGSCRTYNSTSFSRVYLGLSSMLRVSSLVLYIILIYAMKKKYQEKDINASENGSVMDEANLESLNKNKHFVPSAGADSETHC
Protocol: as §1, §2, §3

human OATP1B3 = human OATP1B3 (Homo sapiens, UniProt Q9NPD5); conditions: 5 µM; 10 min; 37°C; vs mock cells
Chain of human OATP1B3 (Q9NPD5 whole entry): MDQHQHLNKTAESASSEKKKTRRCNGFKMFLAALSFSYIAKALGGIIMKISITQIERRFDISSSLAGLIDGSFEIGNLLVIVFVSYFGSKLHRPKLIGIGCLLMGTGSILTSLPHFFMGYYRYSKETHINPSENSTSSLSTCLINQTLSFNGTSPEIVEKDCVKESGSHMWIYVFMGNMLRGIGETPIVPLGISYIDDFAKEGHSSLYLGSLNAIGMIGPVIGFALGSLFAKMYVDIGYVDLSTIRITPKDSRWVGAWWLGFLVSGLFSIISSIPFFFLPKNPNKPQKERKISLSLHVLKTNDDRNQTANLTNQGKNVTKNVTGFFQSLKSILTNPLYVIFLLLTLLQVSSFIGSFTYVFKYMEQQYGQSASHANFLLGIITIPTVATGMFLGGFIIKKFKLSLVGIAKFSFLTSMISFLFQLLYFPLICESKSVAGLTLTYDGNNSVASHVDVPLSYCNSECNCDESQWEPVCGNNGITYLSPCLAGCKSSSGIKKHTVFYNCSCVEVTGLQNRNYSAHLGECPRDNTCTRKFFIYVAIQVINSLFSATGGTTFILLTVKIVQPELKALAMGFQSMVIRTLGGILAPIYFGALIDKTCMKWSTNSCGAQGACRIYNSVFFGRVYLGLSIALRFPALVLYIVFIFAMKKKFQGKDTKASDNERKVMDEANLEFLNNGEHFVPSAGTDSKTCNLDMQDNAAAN
Protocol: as §1, §2, §3

MATE2-K = conditions: cited from earlier work
OATP2B1 = conditions: cited from earlier work
human NTCP = biological target: T2, human NTCP (Homo sapiens, UniProt Q14973); test: Uptake in NTCP-transfected HEK293 cells; conditions: 5 µM; 10 min; 37°C; vs mock cells
T2 sequence (Q14973 1-349): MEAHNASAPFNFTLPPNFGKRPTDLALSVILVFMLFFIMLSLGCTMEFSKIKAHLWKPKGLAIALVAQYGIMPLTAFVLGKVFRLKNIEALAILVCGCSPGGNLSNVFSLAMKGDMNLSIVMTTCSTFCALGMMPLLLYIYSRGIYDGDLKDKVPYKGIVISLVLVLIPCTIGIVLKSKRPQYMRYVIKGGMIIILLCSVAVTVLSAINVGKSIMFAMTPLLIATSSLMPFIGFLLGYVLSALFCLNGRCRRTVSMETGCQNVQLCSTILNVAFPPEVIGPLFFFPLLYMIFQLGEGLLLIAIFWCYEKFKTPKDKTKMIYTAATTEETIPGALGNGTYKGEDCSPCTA
Protocol: as §1, §2, §3

[1] = cited from earlier work; for median plasma concentration: standard doses
[2] = thrombocytopenic patients with moderate renal failure

CC(=O)NC[C@H]1CN(c2ccc(N3CCOCC3)c(F)c2)C(=O)O1 [Linezolid]
inhibitor of OAT3 (OAT3): inhibitor | substrate for OCT3 (OCT3): not a substrate | substrate for OAT3 (human OAT3): not a substrate | inhibitor of MAT1 (MAT1): not an inhibitor | inhibitor of OAT1 (OAT1): inhibitor | substrate for OATP1B1 (human OATP1B1): not a substrate | substrate for OATP1B3 (human OATP1B3): not a substrate | substrate for MATE2-K (MATE2-K): not a substrate | inhibitor of OATP2B1 (OATP2B1): inhibitor | substrate for NTCP (human NTCP): not a substrate | administered dose excreted in the urine as the parent drug [1]: 35% | apparent volume of distribution (Vd) [1]: 40 to 50 L | elimination half-life (t1/2) [1]: 5 to 7 h | total clearance (CL) [1]: 80 mL/min | median plasma concentration ([1]; controls without liver cirrhosis): 2.70 mg/L | mean recovery of linezolid radioactivity in excreta ([1]; healthy volunteers): 93.8% | radioactivity excreted in the feces ([1]; healthy volunteers): 9.9% | radioactivity excreted in the urine ([1]; healthy volunteers): 83.9% | share of dosed linezolid in the urine ([1]; humans): more than 30% | CL ([1]; patient with acute-on-chronic liver failure): 1.54 L/h | median plasma concentration ([1]; patients with liver cirrhosis): 20.6 mg/L | median trough concentration ([1]; patients with mild hepatic impairment): 5.51 mg/L | median trough concentration ([1]; patients with moderate hepatic impairment): 6.70 mg/L | median trough concentration ([1]; patients with severe hepatic impairment): 20.7 mg/L | CL ([1]; patients without concomitant liver failure): 6.26 L/h | AUC0-24 [1, 2]: 513.1 to 994.6 µg·h/mL | trough concentration [1, 2]: 14.4 to 35.6 mg/L
